Measured values taken from patent publication US8354522B2, “Immunostimulatory oligoribonucleotides” (Coley Pharmaceutical GmbH, priority 2005, dated 2013).
Like-named read-outs stand apart in the source and are kept apart here.

Columns and labels:
isolated pDC = assay: IFN-alpha production upon isolated pDC stimulation; assay type: cell-based, human; conditions: 0.5 μM ORN complexed to 10 μg/ml DOTAP, 16 h
Procedure: FIG. 2 is a set of bar graphs depicting ORN induced cytokine production upon isolated pDC (FIG. 2a), monocytes (FIG. 2b) and mDC (FIG. 2c) stimulation. Cells were stimulated with 0.5 μM ORN complexed to 10 μg/ml DOTAP, 0.5 μM CpG ODN or DOTAP or media alone and IFN-alpha (FIG. 2a), TNF-alpha […] and IL-12p40 (FIG. 2c) were measured.
A similar assay testing different ORN sequences was performed using isolated pDC, monocytes and mDC stimulation. Cells were stimulated with 0.5 μM ORN complexed to 10 μg/ml DOTAP, 0.5 μM CpG ODN or DOTAP or media alone. After 16 h the supernatants were harvested and IFN-alpha, TNF-alpha and IL-12p40 levels were measured by ELISA.

Human PBMC = assay: Cytokine production upon human PBMC stimulation (ORN complexed to DOTAP, 16 h, ELISA); assay type: cell-based; set-up: key to IFN-alpha / TNF-alpha: +: cytokine production; −: no cytokine production; conditions: for IFN-alpha / TNF-alpha: human PBMC stimulated for 16 h, supernatant ELISA; for EC50 / IFN-alpha max activity / TNF-alpha max activity: ORN complexed to DOTAP, 16 h; for EC50: full titration 2 μM to 0.9 nM; for IFN-alpha max activity / TNF-alpha max activity: mean max activity at 0.6 μM, 3-6 blood donors
Procedure: Human peripheral blood mononuclear cells (PBMCs) were isolated from healthy donors, plated, and stimulated in vitro with various test and control immunostimulatory agents for 16 hours. After 16 hours, the supernatants were collected and then analyzed by ELISA assay. N-U-R1-R2,-Containing Oligoribonucleotides were tested complexed to DOTAP and with full titration curves (7 concentrations), starting from 2 μM ORN complexed to 25 μg/ml DOTAP and with 1/3 dilution steps. Also included were certain negative controls, including medium alone and DOTAP (25 μg/ml culture well; “Liposomes”) alone. The control immunostimulatory agents included the imidazoquinoline R-848 (2 μM with 1/3 dilution steps and 7 concentrations) the reported ligand for TLR7, ORN having TLR8 motifs such as AU and AUU sequences (SEQ ID NO:13-SEQ ID NO:15) ORN having TLR7/8 motifs such as CU, GU and GUU sequences (SEQ ID NO:19-SEQ ID NO:23).
Human PBMC were stimulated with ORN complexed to DOTAP. After 16 hours supernatants were harvested and TNF-alpha and IFN-alpha levels were measured. Mean/Max activities at 0.6 μM of 3-6 blood donors and two individual experiments were determined. […] TLR8 and TLR7/8 ORN are divided by a red line.
Human PBMC were stimulated with ORN complexed to DOTAP. After 16 hours supernatants were harvested and IFN-alpha levels were measured. Mean/Max activities at 0.6 μM and EC50 of full titration curves (range: 2 μM to 0.9 nM) of 3-6 blood donors and two individual experiments were determined. […] Low EC50/high Max activity represents TLR7/8 ORN (FIG. 5a) whereas high EC50 and low Max activity represents TLR8 ORN (FIG. 5b).
The ORN sequences listed in Table 1 were tested for IFN-alpha and TNF-alpha production upon human PBMC stimulation. Human PBMC were stimulated for 16 h with the indicated ORN, and supernatants were harvested and cytokine production measured by ELISA. Table 2 summarizes the min/max activity and EC50 of ORN for IFN-alpha and TNF-alpha production.

Bovine PBMC = assay: Cytokine production by bovine PBMC (48 hours, ELISA); assay type: cell-based; conditions: 10 μg/ml (H.D.) and 2.5 μg/ml (L.D.)
Procedure: FIG. 11 is a set of bar graphs showing differences between TLR8 ORN (SEQ ID NO:13) and TLR7/8 ORN (SEQ ID NO:21). SEQ ID NO:5 ORN was used as a control. Bovine PBMC were incubated with either 10 μg/ml ORN (HD) or 2.5 μg/ml ORN (LD) for 48 hours. Supernatants were collected and analyzed by ELISA. FIGS. 11a-c show the level of IL-12, IFN-γ, and TNF-alpha, respectively.
The assay was repeated with a TLR8 ORN (SEQ ID NO:13), a TLR 7/8 ORN (SEQ ID NO:21) and a control ORN (SEQ ID NO:5) (Table 3) at both a high dose (H.D., 10 μg/ml) and a low dose (L.D., 2.5 μg/ml).

[1] = human PBMC, read-out: IFN-alpha EC50
[2] = human PBMC, read-out: TNF-alpha EC50

Substance | IFN-alpha (Human PBMC) | TNF-alpha (Human PBMC) | also measured
A*U*A*U*A*U*A*U*A*U*A*U*A*U*A*U*A*U*A*U (AUAUAUAUAUAUAUAUAUAU; chemistry not fully specified) [SEQ ID NO: 12] | − | + | IFN-alpha production upon pDC stimulation (in words) (isolated pDC): no IFN-alpha cytokine production; IFN-alpha production upon PBMC stimulation (in words) (Human PBMC; human PBMC): no IFN-alpha cytokine production
C*C*G*A*G*C*C*G*C*U*A*U*U*C*C*C (CCGAGCCGCUAUUCCC; listed as RNA, chemistry not fully specified) [SEQ ID NO: 51] |  |  | EC50 (Human PBMC; [1]): 582 nM; EC50 (Human PBMC; [2]): 125 nM; IFN-alpha max activity (Human PBMC; human PBMC): 2615 pg/mL; TNF-alpha max activity (Human PBMC; human PBMC): 23325 pg/mL
C*C*G*A*G*C*C*G*C*U*U*A*A*C*C*C (CCGAGCCGCUUAACCC; listed as RNA, chemistry not fully specified) [SEQ ID NO: 49] |  |  | EC50 (Human PBMC; [1]): 375 nM; EC50 (Human PBMC; [2]): 350 nM; IFN-alpha max activity (Human PBMC; human PBMC): 3367 pg/mL; TNF-alpha max activity (Human PBMC; human PBMC): 18039 pg/mL
C*C*G*A*G*C*C*G*C*U*U*A*C*C*C*C (CCGAGCCGCUUACCCC; listed as RNA, chemistry not fully specified) [SEQ ID NO: 53] |  |  | EC50 (Human PBMC; [1]): 244 nM; EC50 (Human PBMC; [2]): 952 nM; IFN-alpha max activity (Human PBMC; human PBMC): 3091 pg/mL; TNF-alpha max activity (Human PBMC; human PBMC): 14623 pg/mL
C*C*G*U*C*U*G*U*U*G*U*G*U*G*A*C*U*C (CCGUCUGUUGUGUGACUC; listed as RNA, chemistry not fully specified) [SEQ ID NO: 5, reference compound] |  |  | IFN-γ production (Bovine PBMC): stimulated production of IFN-γ
C*U*A*C*U*A*C*U*A*C*U*A*C*U*A*C*U*A*C*U (CUACUACUACUACUACUACU; listed as RNA, chemistry not fully specified) [SEQ ID NO: 24] | − | + | IFN-alpha production upon PBMC stimulation (in words) (Human PBMC; human PBMC): no IFN-alpha production; TNF-alpha production upon PBMC stimulation (in words) (Human PBMC; human PBMC): TNF-alpha inducing
C*U*A*G*G*C*A*C (CUAGGCAC; phosphorothioate linkages, chemistry not fully specified) [SEQ ID NO: 3] | − | + | 
C*U*C*U*C*U*C*U*C*U*C*U*C*U*C*U*C*U*C*U (CUCUCUCUCUCUCUCUCUCU; listed as RNA, chemistry not fully specified) [SEQ ID NO: 19] | + | + | 
G*C*C*A*C*C*G*A*G*C*C*G*A*A*U*A*U*A*C*C (GCCACCGAGCCGAAUAUACC; listed as RNA, chemistry not fully specified) [SEQ ID NO: 11] | − | + | 
G*U*A*G*G*C*A*C (GUAGGCAC; phosphorothioate linkages, chemistry not fully specified) [SEQ ID NO: 1] | − | + | 
G*U*A*G*U*A*G (GUAGUAG; phosphorothioate linkages, chemistry not fully specified) [SEQ ID NO: 34] | + | + | 
G*U*A*G*U*A*G*U*A*G*U*A*G*U*A*G*U*A*G*U (GUAGUAGUAGUAGUAGUAGU; listed as RNA, chemistry not fully specified) [SEQ ID NO: 25] | + | + | 
G*U*C*G*U*C*G*U*C*G*U*C*G*U*C*G*U*C*G*U (GUCGUCGUCGUCGUCGUCGU; listed as RNA, chemistry not fully specified) [SEQ ID NO: 26] | + | + | 
G*U*G*U*G*U*G*U*G*U*G*U*G*U*G*U*G*U*G*U (GUGUGUGUGUGUGUGUGUGU; listed as RNA, chemistry not fully specified) [SEQ ID NO: 20] | + | + | 
I*U*A*I*U*A*I*U*A*I*U*A*I*U*A*I*U*A*I*U (NUANUANUANUANUANUANU; inosine, phosphorothioate linkages, chemistry not fully specified) [SEQ ID NO: 27] | + | + | 
U*A*U*A*U*A*U (UAUAUAU; phosphorothioate linkages, chemistry not fully specified) [SEQ ID NO: 33] | − | + | 
U*C*U*C*U*C*U (UCUCUCU; phosphorothioate linkages, chemistry not fully specified) [SEQ ID NO: 32] | + | + | 
U*G*U*G*U*G*U (UGUGUGU; phosphorothioate linkages, chemistry not fully specified) [SEQ ID NO: 31] | + | + | 
U*U*A*G*G*C*A*C (UUAGGCAC; phosphorothioate linkages, chemistry not fully specified) [SEQ ID NO: 2] | − | + | 
U*U*A*U*U*A*U (UUAUUAU; phosphorothioate linkages, chemistry not fully specified) [SEQ ID NO: 30] | − | + | 
U*U*G*U*U*G*U (UUGUUGU; phosphorothioate linkages, chemistry not fully specified) [SEQ ID NO: 29] | + | + | 
U*U*I*U*U*I*U*U*I*U*U*I*U*U*I*U*U*I*U*U (UUNUUNUUNUUNUUNUUNUU; inosine, phosphorothioate linkages, chemistry not fully specified) [SEQ ID NO: 28] | + | + | 
U*U*U*A*U*U*U*A*U*U*U*A*U*U*U*A*U*U*U*A (UUUAUUUAUUUAUUUAUUUA; chemistry not fully specified) [SEQ ID NO: 14] | + | + | IFN-alpha production upon PBMC stimulation (in words) (Human PBMC; human PBMC): induced IFN-alpha production
U*U*U*G*U*U*U*G*U*U*U*G*U*U*U*G*U*U*U*G (UUUGUUUGUUUGUUUGUUUG; listed as RNA, chemistry not fully specified) [SEQ ID NO: 22] | + | + | 
U*U*U*U*A*U*U*U*U*A*U*U*U*U*A*U*U*U*U*A (UUUUAUUUUAUUUUAUUUUA; chemistry not fully specified) [SEQ ID NO: 15] | + | + | IFN-alpha production upon PBMC stimulation (in words) (Human PBMC; human PBMC): induced IFN-alpha production
U*U*U*U*G*U*U*U*U*G*U*U*U*U*G*U*U*U*U*G (UUUUGUUUUGUUUUGUUUUG; listed as RNA, chemistry not fully specified) [SEQ ID NO: 23] | + | + | 
dN*dN*dN*dN*dN*A*U*A*U*A*U*A*U*dN*dN*dN*dN*dN*dN [SEQ ID NO: 9] | − | + | 
dN*dN*dN*dN*dN*N*A*U*A*U*N*N*dN*dN*dN*dN*dN*dN [SEQ ID NO: 7] | − | + | 
